Experiments:
Type in all cases: cell-based
[1] = system: bacterial species with a recognized PGPR (Plant-Growth Promoting Rhizobacteria) effect; test: Growth in liquid medium (96-well microplate), bacteria not specified
Protocol: (§1) The effect of the addition of algae extracts to a […] culture medium on the growth kinetics of seven bacterial species with a recognized PGPR (Plant-Growth Promoting Rhizobacteria) effect was determined: Bacillus megaterium, Bacillus subtilis, Rhizobium leguminosarum, Azotobacter vinelandii, Pseudomonas fluorescens, Pseudomonas fulva, Arthrobacter agilis.
(§2) Nutrient broth NB culture medium (Sigma-Aldrich) at 25 g/L was used for the multiplication of the following bacteria: Bacillus subtilis, Bacillus megaterium, Arthrobacter agilis, Pseudomonas fluorescens, Pseudomonas fulva. YMA medium (Sigma-Aldrich) without agar was used for Rhizobium leguminosarum bacteria.
(§3) Tests in sterile 96-well round-bottom microplates were performed. An absorbance of 0.06 to 0.08 (600 nm) for inoculation of the bacteria into the microplate was used in these tests.
(§4) Microplate plating included a blank, a positive control, a negative control and the samples.
(§5) The positive control was composed of bacteria and optimum culture medium (nutrient broth NB), in order to verify good multiplication of the bacteria in the microplates.
(§6) The negative control consisted of sterilized distilled water devoid of carbonaceous elements with 20 μl of bacteria inoculated with their NB culture medium, in order to determine how bacterial growth behaved in a medium depleted of any carbonaceous elements.
(§7) The blank was distilled water without bacteria in order to determine possible variations in absorbance and potential bacterial contamination.
(§8) The different algal extract tests consisted of sterile distilled water with the tested solutions at different concentrations (66 μl) to which 20 μl of bacteria were added.
(§9) The different seaweed extracts tested are: commercial mannitol, commercial laminarans, composition according to the invention (laminarans extract).
FIGS. 1 to 3 show a growth of bacterial strains in liquid medium using only the generated extract as carbon source for different bacteria.

Pseudomonas fulva = test: Growth in liquid medium (96-well microplate, absorbance 600 nm), tested solution as only carbon source
Protocol: as §1, §2, §3, §4, §5, §6, §7, §8, §9

Pseudomonas fluorescens = test: as above
Protocol: as §1, §2, §3, §4, §5, §6, §7, §8, §9

Bacillus megaterium = test: as above
Protocol: as §1, §2, §3, §4, §5, §6, §7, §8, §9

Compound	concentration of maximum effect on bacterial growth ([1]; sole source of carbon) [%]	effect on bacterial growth ([1]; sole source of carbon, higher concentrations (2%))	effect on bacterial growth ([1]; sole source of carbon, lower concentrations (0.1%))	interaction between bacteria and compound (growth curve versus negative and positive control) (Pseudomonas fulva; concentration 0.3%)	interaction between bacteria and compound (growth curve versus negative and positive control) (Pseudomonas fulva; concentration 0.5%)	interaction between bacteria and compound (growth curve versus negative and positive control) (Pseudomonas fulva; concentration 1%)	interaction between bacteria and compound (growth curve versus negative and positive control) (Pseudomonas fluorescens; concentration 0.3%)	interaction between bacteria and compound (growth curve versus negative and positive control) (Pseudomonas fluorescens; concentration 0.5%)	interaction between bacteria and compound (growth curve versus negative and positive control) (Pseudomonas fluorescens; concentration 1%)	interaction between bacteria and compound (growth curve versus negative and positive control) (Bacillus megaterium; concentration 0.3%)	interaction between bacteria and compound (growth curve versus negative and positive control) (Bacillus megaterium; concentration 0.5%)	interaction between bacteria and compound (growth curve versus negative and positive control) (Bacillus megaterium; concentration 1%)	effect on bacterial growth ([1]; concentration not given)	effect on bacterial growth ([1]; concentrations in the range of <0.01%)	effect on bacterial growth ([1]; especially when the concentration was above 0.1%)	concentration from which it can be used as a carbon source (increase in bacterial growth) ([1]; used alone)	dependence of the effect on bacterial growth on concentration ([1]; used alone as carbon source)
OC[C@@H](O)[C@@H](O)[C@H](O)[C@H](O)CO [purified mannitol, mannitol]	1	very little or no effect	very little or no effect	absence of interaction between bacteria and compounds	absence of interaction between bacteria and compounds	positive interaction between bacteria and compounds	absence of interaction between bacteria and compounds	absence of interaction between bacteria and compounds	positive interaction between bacteria and compounds	absence of interaction between bacteria and compounds	absence of interaction between bacteria and compounds	positive interaction between bacteria and compounds	–	–	–	–	–
Alginates	–	–	–	–	–	–	–	–	–	–	–	–	little effect	–	–	–	–
Fucoidans	–	–	–	–	–	–	–	–	–	–	–	–	–	a small improvement in growth	did not seem to show any real positive effect	–	–
laminaran [standard laminaran]	–	–	–	absence of interaction between bacteria and compounds	absence of interaction between bacteria and compounds	positive interaction between bacteria and compounds	absence of interaction between bacteria and compounds	absence of interaction between bacteria and compounds	positive interaction between bacteria and compounds	absence of interaction between bacteria and compounds	absence of interaction between bacteria and compounds	positive interaction between bacteria and compounds	–	–	–	about 1%	the higher the concentration, the greater the effect

Reference: patent US12628833B2, “Composition and method for improving plant growth” (ALGAIA, priority 2019, dated 2026)
